Assay results published in patent US10202374B2, “6-aryl-4-phenylamino-quinazoline analogs as phosphoinositide-3-kinase inhibitors” (COUNCIL OF SCIENTIFIC & INDUSTRIAL RESEARCH, priority 2014, dated 2019).

Tests used:
PI3K-α = PI3K-α (Homo sapiens, UniProt P42336); test: PI3K-α assay (ADP-Glo); assay type: biochemical; settings: for inhibition at 0.5 µM / % Inhibition of PI3K-α at 0.5 μM: preliminary screening; for IC50: read-out: PI3K inhibition IC50 -α
Description: The enzyme is assayed for 80 min after which 20 ul of ADP-Glo reagent is added. After a further incubation of 40 min, 40 ul of Kinase Detection Buffer is added. The assays are incubated for 40 min and then read on PerkinElmer Envision for 1 sec/well.

[1] = test system: PC-3 (prostate cancer) cells; test: MTT cytotoxicity assay, PC-3; assay type: cell-based; settings: Homo sapiens, 48 h treatment, read-out: Anticancer activity IC50 PC-3
Description: (§1) Compounds proposed in present invention were evaluated for their cytotoxic effect against panel of 5 cancer cell line viz. Panc-1 (pancreatic cancer), MCF-7 (breast cancer), PC-3 (prostate), HL-60 (leukemia) and A-375 (melanoma) using MTT assay. In each well of a 96-well plate, 3×10^3 cells were grown in 100 μL of medium. After 24 h, each test molecules were added to achieve a final concentration of 10 to 0.01 μmol/L, respectively. After 48 h of treatment, 20 μL of 2.5 mg/mL MTT (Organics Research, Inc.) solution in phosphate buffer saline was added to each well. […], supernatant was removed and formazan crystals were dissolved in 200 μL of DMSO. Absorbance was then measured at 570 nm using an absorbance plate reader (Bio-Rad Microplate Reader). Data are expressed as the percentage of viable cells in treated relative to non-treated conditions. Each experiment was repeated thrice and data was expressed as mean±SD of three independent experiments (Mordant, P. et al., Mol. Cancer Ther. 2010, 9, 358).

PI3K-β = PI3K-β (Homo sapiens, UniProt P42338); test: PI3K-β assay (ADP-Glo); assay type: biochemical; settings: for IC50: read-out: PI3K inhibition IC50 -β; for Fold-selectivity for PI3K-α with respect to -β: α versus β isoform
Sequence of PI3K-β (P42338 whole entry, species assumed, canonical isoform): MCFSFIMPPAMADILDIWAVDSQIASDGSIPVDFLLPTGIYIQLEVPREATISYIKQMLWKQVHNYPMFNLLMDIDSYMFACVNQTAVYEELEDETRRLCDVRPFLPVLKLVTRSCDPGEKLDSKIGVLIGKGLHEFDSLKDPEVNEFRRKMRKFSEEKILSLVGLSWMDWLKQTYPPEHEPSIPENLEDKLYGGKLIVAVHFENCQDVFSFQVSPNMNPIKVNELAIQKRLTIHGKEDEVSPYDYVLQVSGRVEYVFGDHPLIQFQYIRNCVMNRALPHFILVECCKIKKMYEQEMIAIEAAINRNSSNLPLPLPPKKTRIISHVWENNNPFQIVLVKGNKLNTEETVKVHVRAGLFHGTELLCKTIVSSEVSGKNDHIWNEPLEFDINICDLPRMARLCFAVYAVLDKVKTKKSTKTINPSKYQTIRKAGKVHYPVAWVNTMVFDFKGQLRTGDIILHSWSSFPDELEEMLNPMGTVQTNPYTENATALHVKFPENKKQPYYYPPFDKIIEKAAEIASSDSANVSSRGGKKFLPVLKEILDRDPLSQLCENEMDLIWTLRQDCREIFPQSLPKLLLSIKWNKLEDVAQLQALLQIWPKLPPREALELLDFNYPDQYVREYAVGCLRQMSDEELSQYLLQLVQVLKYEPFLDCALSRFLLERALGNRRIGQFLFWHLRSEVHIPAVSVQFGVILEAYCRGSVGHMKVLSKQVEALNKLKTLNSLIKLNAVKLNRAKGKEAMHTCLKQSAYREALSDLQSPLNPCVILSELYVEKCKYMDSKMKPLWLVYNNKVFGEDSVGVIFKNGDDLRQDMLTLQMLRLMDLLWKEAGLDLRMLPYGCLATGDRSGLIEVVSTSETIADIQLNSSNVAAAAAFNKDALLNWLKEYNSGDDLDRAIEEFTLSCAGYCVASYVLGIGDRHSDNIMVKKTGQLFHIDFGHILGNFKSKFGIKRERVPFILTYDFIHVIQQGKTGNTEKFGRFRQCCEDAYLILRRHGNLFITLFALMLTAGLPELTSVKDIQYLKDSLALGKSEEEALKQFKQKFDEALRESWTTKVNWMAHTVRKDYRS
Sequence of PI3K-β (P27986 whole entry partner, species assumed, canonical isoform): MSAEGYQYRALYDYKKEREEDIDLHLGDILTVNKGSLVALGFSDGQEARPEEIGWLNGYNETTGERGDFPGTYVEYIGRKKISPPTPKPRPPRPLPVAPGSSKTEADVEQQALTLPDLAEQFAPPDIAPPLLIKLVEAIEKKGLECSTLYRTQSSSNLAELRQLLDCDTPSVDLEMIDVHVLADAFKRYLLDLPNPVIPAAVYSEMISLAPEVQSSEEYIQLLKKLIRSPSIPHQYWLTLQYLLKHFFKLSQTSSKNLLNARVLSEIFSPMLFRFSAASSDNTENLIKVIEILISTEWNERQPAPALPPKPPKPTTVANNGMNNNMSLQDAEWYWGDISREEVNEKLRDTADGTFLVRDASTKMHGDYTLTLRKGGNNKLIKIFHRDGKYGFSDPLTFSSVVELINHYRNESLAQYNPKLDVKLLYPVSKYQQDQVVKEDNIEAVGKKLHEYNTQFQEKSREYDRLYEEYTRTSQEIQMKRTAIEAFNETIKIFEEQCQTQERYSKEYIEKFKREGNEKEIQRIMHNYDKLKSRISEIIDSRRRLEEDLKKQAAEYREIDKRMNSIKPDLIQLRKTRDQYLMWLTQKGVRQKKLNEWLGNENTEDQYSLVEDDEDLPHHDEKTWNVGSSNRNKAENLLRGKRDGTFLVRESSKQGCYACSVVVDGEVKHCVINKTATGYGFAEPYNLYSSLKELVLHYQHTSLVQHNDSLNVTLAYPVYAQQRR
Description: The enzyme is assayed for 60 min after which 20 ul of ADP-Glo reagent is added. After a further incubation of 40 min, 40 ul of kinase detection Buffer is added. The assays are incubated for 40 min and then read on PerkinElmer Envision for 1 sec/well.

[2] = test system: Panc-1 (pancreatic cancer) cells; test: MTT cytotoxicity assay, Panc-1; assay type: cell-based; settings: Homo sapiens, 48 h treatment, read-out: Anticancer activity IC50 Panc-1
Description: as §1

PI3K-γ = PI3K-γ (Homo sapiens, UniProt P48736); test: PI3K-γ assay (ADP-Glo); assay type: biochemical; settings: for IC50: read-out: PI3K inhibition IC50 -γ; for Fold-selectivity for PI3K-α with respect to -γ: α versus γ isoform
Sequence of PI3K-γ (P48736 whole entry, species assumed, canonical isoform): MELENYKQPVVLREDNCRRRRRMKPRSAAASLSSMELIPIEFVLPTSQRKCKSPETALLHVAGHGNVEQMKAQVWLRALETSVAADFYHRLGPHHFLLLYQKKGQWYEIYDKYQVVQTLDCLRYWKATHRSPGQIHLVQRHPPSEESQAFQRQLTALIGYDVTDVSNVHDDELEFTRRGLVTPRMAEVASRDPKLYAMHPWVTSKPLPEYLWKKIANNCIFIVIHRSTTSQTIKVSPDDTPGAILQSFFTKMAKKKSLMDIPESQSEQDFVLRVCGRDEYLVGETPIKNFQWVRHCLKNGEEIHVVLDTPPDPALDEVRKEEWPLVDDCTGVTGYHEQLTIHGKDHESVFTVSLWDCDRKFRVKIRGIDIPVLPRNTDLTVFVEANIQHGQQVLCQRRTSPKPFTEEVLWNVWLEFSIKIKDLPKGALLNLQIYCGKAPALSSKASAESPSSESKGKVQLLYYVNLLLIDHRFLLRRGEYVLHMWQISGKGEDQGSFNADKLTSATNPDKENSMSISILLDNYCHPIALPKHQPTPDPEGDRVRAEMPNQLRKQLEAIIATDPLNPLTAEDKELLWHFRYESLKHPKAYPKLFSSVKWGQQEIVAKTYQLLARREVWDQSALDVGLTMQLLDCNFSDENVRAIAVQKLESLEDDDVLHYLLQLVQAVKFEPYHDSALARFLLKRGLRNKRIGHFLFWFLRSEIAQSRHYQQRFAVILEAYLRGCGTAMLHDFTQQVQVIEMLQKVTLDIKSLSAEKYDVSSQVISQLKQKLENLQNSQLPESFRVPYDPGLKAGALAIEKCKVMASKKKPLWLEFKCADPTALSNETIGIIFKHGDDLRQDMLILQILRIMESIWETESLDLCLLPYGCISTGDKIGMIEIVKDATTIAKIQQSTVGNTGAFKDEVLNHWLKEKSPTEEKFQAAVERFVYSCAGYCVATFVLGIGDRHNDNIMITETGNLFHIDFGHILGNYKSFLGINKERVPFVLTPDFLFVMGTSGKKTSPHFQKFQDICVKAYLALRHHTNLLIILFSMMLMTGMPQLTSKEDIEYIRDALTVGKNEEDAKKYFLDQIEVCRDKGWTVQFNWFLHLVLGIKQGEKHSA
Description: The enzyme is assayed for 75 min after which 20 ul of ADP-Glo reagent is added. After a further incubation of 40 min, 40 ul of Kinase Detection Buffer is added. The assays are incubated for 40 min and then read on PerkinElmer Envision for 1 sec/well.

A-375 (melanoma) cells = test: MTT cytotoxicity assay, A375; assay type: cell-based; settings: Homo sapiens, 48 h treatment, read-out: Anticancer activity IC50 A375
Description: as §1

PI3K-δ = PI3K-δ (Homo sapiens, UniProt O00329); test: PI3K-δ assay (ADP-Glo); assay type: biochemical; settings: for IC50: read-out: PI3K inhibition IC50 -δ; for Fold-selectivity for PI3K-α with respect to -δ: α versus δ isoform
Sequence of PI3K-δ (O00329 whole entry, species assumed, canonical isoform): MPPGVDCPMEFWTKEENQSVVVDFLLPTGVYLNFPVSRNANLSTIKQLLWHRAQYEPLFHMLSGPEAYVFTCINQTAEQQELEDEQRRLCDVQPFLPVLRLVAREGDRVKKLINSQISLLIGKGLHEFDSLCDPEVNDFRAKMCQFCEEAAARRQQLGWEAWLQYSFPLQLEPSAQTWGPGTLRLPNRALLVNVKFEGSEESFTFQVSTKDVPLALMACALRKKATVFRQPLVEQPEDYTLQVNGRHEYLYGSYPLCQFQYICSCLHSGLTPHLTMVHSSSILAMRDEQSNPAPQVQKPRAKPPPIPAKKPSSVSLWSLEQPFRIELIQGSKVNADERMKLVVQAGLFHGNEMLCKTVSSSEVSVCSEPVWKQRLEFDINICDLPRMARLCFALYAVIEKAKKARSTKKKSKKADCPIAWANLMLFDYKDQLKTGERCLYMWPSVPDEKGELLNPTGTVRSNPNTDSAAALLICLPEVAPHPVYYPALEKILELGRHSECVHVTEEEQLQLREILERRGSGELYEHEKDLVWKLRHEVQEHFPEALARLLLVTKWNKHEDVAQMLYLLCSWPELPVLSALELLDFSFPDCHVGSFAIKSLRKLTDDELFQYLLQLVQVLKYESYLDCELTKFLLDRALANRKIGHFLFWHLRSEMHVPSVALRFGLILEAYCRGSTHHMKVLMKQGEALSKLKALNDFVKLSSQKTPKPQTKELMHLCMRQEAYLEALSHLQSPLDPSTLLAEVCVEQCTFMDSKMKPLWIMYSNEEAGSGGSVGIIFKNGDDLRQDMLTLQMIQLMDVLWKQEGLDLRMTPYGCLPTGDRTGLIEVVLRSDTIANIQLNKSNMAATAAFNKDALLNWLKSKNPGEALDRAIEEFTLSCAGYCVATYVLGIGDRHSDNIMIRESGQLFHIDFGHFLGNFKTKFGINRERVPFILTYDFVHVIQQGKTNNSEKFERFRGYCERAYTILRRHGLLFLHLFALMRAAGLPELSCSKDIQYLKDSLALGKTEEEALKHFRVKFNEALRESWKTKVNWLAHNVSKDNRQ
Sequence of PI3K-δ (P27986 whole entry partner, species assumed, canonical isoform): as the sequence (P27986 whole entry partner, species assumed, canonical isoform) above
Description: Compounds proposed in present invention were evaluated for their inhibitory activity on phosphoinositide-3-kinase-alpha and other isoforms (beta, gamma and delta). […] The protocols used for these bioassays are as follows:
The enzyme is assayed for 120 min after which 20 ul of ADP-Glo reagent is added. After a further incubation of 40 min, 40 ul of Kinase Detection Buffer is added. The assays are incubated for 40 min and then read on PerkinElmer Envision for 1 sec/well.

HL-60 (leukemia) cells = test: MTT cytotoxicity assay, HL-60; assay type: cell-based; settings: Homo sapiens, 48 h treatment, read-out: Anticancer activity IC50 HL-60
Description: as §1

[3] = test system: MCF-7 (breast cancer) cells; test: MTT cytotoxicity assay, MCF-7; assay type: cell-based; settings: Homo sapiens, MCF7, 48 h treatment, read-out: Anticancer activity IC50 MCF-7
Description: as §1

Sequence of PI3K-α (P42336 whole entry): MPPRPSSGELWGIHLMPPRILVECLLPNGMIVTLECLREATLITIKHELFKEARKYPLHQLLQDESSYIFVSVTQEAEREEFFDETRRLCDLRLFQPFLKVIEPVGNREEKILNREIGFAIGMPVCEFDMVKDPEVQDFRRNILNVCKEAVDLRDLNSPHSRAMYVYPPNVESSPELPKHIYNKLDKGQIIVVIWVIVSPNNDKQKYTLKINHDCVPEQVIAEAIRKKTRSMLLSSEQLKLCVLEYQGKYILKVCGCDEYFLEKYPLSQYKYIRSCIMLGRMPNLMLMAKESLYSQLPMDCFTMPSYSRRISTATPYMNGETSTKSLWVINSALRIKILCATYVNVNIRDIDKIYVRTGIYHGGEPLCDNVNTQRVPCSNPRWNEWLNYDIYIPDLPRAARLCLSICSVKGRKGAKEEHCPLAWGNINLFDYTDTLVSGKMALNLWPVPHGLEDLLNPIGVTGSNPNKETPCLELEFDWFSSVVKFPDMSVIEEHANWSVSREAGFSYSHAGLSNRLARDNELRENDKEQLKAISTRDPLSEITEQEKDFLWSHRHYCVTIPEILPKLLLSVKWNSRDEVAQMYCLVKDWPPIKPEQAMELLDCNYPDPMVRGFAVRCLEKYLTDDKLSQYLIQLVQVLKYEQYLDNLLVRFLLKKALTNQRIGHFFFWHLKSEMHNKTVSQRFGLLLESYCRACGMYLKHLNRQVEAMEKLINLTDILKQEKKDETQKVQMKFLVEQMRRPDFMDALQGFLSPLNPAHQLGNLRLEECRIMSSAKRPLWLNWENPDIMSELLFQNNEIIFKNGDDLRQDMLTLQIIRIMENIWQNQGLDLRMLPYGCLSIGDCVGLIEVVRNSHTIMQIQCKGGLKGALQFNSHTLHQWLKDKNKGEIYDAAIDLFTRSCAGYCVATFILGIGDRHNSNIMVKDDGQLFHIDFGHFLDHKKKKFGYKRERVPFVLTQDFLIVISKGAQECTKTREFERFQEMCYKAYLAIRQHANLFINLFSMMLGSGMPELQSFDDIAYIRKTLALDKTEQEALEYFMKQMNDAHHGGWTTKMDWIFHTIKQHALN
Sequence of PI3K-α (P27986 whole entry partner): as the sequence (P27986 whole entry partner, species assumed, canonical isoform) above

| inhibition at 0.5 µM (PI3K-α) | IC50 (PI3K-α) | IC50 (PI3K-β) | Fold-selectivity for PI3K-α with respect to -β (PI3K-β) | IC50 (PI3K-γ) | Fold-selectivity for PI3K-α with respect to -γ (PI3K-γ) | IC50 (PI3K-δ) | Fold-selectivity for PI3K-α with respect to -δ (PI3K-δ) | % Inhibition of PI3K-α at 0.5 μM (PI3K-α) | % inhibition of PI3K-β (PI3K-β; up to 20 μM) | Structure (SMILES) | IC50 [1] | IC50 [2] | IC50 (A-375 (melanoma) cells) | IC50 (HL-60 (leukemia) cells) | IC50 [3] |
| --- | --- | --- | --- | --- | --- | --- | --- | --- | --- | --- | --- | --- | --- | --- | --- |
| > 40% | 0.201 µM | > 10 µM | >49.7 fold | 0.75 µM | 3.7 fold | > 10 µM | >49.7 fold | 47.5% | – | N#CCc1ccc(Nc2ncnc3ccc(-c4ccc5[nH]ccc5c4)cc23)cc1 [Compound 26, 6-(1H-indol-5-yl)-4-(4-cyanomethyl)phenylamino-quinazoline] | 24 µM | 16 µM | 31 µM | 18 µM | 7 µM |
| > 40% | 0.704 µM | > 10 µM | >14.2 fold | 0.36 µM | 0.5 fold | > 10 µM | >14.2 fold | 45.6% | – | N#CCc1ccc(Nc2ncnc3ccc(-c4ccncc4)cc23)cc1 [Compound 28, 6-(pyridin-4-yl)-4-(4-cyanomethyl)phenylamino-quinazoline] | 76 µM | 39 µM | 35 µM | 32 µM | 32 µM |
| > 40% | 0.15 µM | > 20 µM | >133 fold | 8.44 µM | 56 fold | 0.88 µM | 5.9 fold | 48.8% | 0% | N#CCc1ccc(Nc2ncnc3ccc(-c4cncc5ccccc45)cc23)cc1 [Compound 29, 6-(isoquinolin-4-yl)-4-(4-cyanomethyl)phenylamino-quinazoline] | 9 µM | 9 µM | 12 µM | 10 µM | 12 µM |

Continued, compound first:

| Structure (SMILES) | inhibition at 0.5 µM (PI3K-α) | IC50 (PI3K-α) | IC50 (PI3K-β) | Fold-selectivity for PI3K-α with respect to -β (PI3K-β) | IC50 (PI3K-γ) | Fold-selectivity for PI3K-α with respect to -γ (PI3K-γ) | IC50 (PI3K-δ) | Fold-selectivity for PI3K-α with respect to -δ (PI3K-δ) | % Inhibition of PI3K-α at 0.5 μM (PI3K-α) | % inhibition of PI3K-β (PI3K-β; up to 20 μM) | IC50 [1] | IC50 [2] | IC50 (A-375 (melanoma) cells) | IC50 (HL-60 (leukemia) cells) | IC50 [3] |
| --- | --- | --- | --- | --- | --- | --- | --- | --- | --- | --- | --- | --- | --- | --- | --- |
| CC(=O)Nc1cccc(-c2ccc3ncnc(Nc4ccc(CC#N)cc4)c3c2)c1 [Compound 15, 6-(3-acetylaminophenyl)-4-(4-cyanomethyl)phenylamino quinazoline] | 36.8% | 0.475 µM | > 10 µM | >21 fold | 6.95 µM | 14.6 fold | > 10 µM | >21 fold | – | – | 26 µM | 38 µM | 38 µM | 23 µM | 14 µM |
| N#CCc1ccc(Nc2ncnc3ccc(-c4ccc5c(c4)OCCO5)cc23)cc1 [Compound 20, 6-(2,3-dihydrobenzo[b][1,4]dioxin-6-yl)-4-(4-cyanomethyl)phenylamino-quinazoline] | 33% | 0.342 µM | > 10 µM | >29.2 fold | 1.37 µM | 4 fold | > 10 µM | >29.2 fold | – | – | 34 µM | 32 µM | 27 µM | 21 µM | 34 µM |
| N#CCc1ccc(Nc2ncnc3ccc(-c4ccc5c(c4)OCO5)cc23)cc1 [Compound 21, 6-(benzo[d][1,3]dioxol-5-yl)-4-(4-cyanomethyl)phenylamino-quinazoline] | > 40% | 0.321 µM | > 10 µM | >31.1 fold | 0.19 µM | 0.6 fold | > 10 µM | >31.1 fold | 48.6% | – | 7 µM | 33 µM | 24 µM | 27 µM | 34 µM |
